Measurements taken from publication PMC10115881, “Disrupting the α-synuclein-ESCRT interaction with a peptide inhibitor mitigates neurodegeneration in preclinical models of Parkinson’s disease” (Nature Communications, 2023).

Key:
Type in all cases: cell-based, human
[1] = test system: A53T a-syn-mediated cytotoxicity in HEK293 cells; experiment: Pooled lentiviral 7-mer peptide cytotoxicity screen, A53T a-syn + MG132; details: for Reads 0M MG132: Illumina reads, average Phred >30;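 as to Slope Norm Reads: reads normalized to total peptide reads per sample with scalar factor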
From the text: (§1) We used a lentiviral library of 50,549 7-mer peptides enriched in PPI motifs[13] on a green fluorescent protein (GFP) scaffold (Fig. 1A). We infected cells in a pooled format and the amino acid sequence of each peptide served as its own barcode. By using a low multiplicity of infection followed by puromycin selection, each infected cell expressed one unique GFP-peptide. We screened for peptides that reduced a-syn-mediated cytotoxicity or a-syn oligomers in parallel (Fig. 1A). To cause cytotoxicity relevant to PD, we induced proteostatic stress in HEK293 cells by inhibiting the proteasome with MG132 and overexpressing human WT a-syn associated with idiopathic PD in one screen or the more toxic mutant A53T a-syn associated with familial PD in a second screen. This combination of a-syn overexpression and pharmacological proteasome inhibition led to death of most cells, with only those that expressed a protective peptide surviving. By extracting genomic DNA from the surviving cells and amplifying the peptide coding sequences, we identified the protective peptides (Fig. 1A). To detect a-syn oligomers, we used a protein fragment complementation assay (PCA) of a-syn oligomerization in HEK293 cells. In this assay, human A53T a-syn was fused to either the C- or N-terminal half of yellow fluorescent protein (YFP). No fluorescence is detectable while a-syn exists in monomers but, when a-syn oligomerizes, the two halves of YFP come in close enough proximity to form a functional, spontaneously fluorescent protein. […] Our screens yielded 10 hits (Table S1). The hit with the most reads (i.e., the most abundant) was the same peptide in all screens: IPIQLKA (named PDpep1) (Table S1). We validated the cytoprotective effects of PDpep1 in HEK293 cells overexpressing WT or A53T a-syn (Figs. 1B, S1A), as well as its ability to reduce WT or A53T a-syn oligomers in a luciferase-based PCA[18]–[20] compared to a scrambled control peptide (Figs. 1C, S1B).
(§2) HEK293T cells (ATCC, CRL-3216) were maintained in DMEM supplemented with 10% FBS and 1% pen/strep/glutamine, and the appropriate selection antibiotics when required. Lentiviruses were made in a 15 cm dish format by transfecting packaging cells (HEK293T) with a three-plasmid system (expression vector, psPAX2 and pMD2.G) and using Polyjet DNA transfection reagent (FroggaBio, SL100688.1). Viral transduction of HEK293T cells were performed with a multiplicity of infection (MOI) of 0.3. Infected cells were selected in puromycin-containing medium to eliminate uninfected cells and three aliquots of cells were collected for sampling of the initial (T0) cell population. Cells were treated with MG132 at concentrations of 0, 10, 25, or 50 µM. For the cell viability screen, surviving cells were collected and gDNA was extracted for identification of peptide inhibitors of cell toxicity. For the inhibition of a-syn aggregation screen, a protein fragment complementation assay (PCA) was used by transfecting cells with split YFP-a-syn constructs following stable expression of the peptides. Cells were sorted based on their YFP fluorescence intensities with a FACSVantage SE cell sorter (BD Bioscience) and gDNA was extracted for identification of peptides.
(§3) Genomic DNA (gDNA) from peptide expressing cells at different time-points was extracted using QIAamp DNA Blood Mini Kit. PCR amplifications of peptides from gDNA in parallel with the lentiviral plasmid library (naïve library) were performed using indexed Illumina PCR primers to incorporate both the Illumina adapter sequences and indexing sequences. Each 50 μl reaction contained 3.2 μg of template, 2× PCR buffer, 2× enhancer solution, 300 μM each dNTP, 900 nM each of Adapter A (5′-[…]-[…]-3′) and Adapter B (5′-[…]-[…]-3′), 1 mM MgSO4, 3.75 units of Platinum Pfx polymerase, and water to 50 μl. […]

[2] = test system: WT a-syn-mediated cytotoxicity in HEK293 cells; experiment: Pooled lentiviral 7-mer peptide cytotoxicity screen, WT a-syn + MG132; details: for Reads 0M MG132: Illumina reads, average Phred >30;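 as to Slope Norm Reads: reads normalized to total peptide reads per sample with scalar factor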
From the text: as §1, §2, §3

[3] = test system: A53T a-syn expressing HEK293 cells; experiment: Cell Titer-Glo cell viability, A53T a-syn expressing cells; details: A53T a-syn cells
Description: Oligonucleotides encoding the specific peptides were synthesized and individually cloned into the pLJM1 nGFP lentiviral vector. HEK293T cells were infected with individual constructs, and cell viability was assessed using Cell Titer-Glo luminescent assay (Promega) at 72 h post infection.
Cells were trypsinized from subconfluent cultures as described earlier, suspended in culture media, and then seeded into triplicate wells of a 96-well plate (100 µl/well) at a density of 1.5 × 10^4 cells per well with standard culture conditions of 5% CO2 at 37 °C. Cells were infected with lentivirus expressing peptide at a MOI of 5 for 72 h or transfected with plasmid for 72 h. Cell Titer-Glo reagent was added to each well (30 µL), according to the manufacturer’s protocol and […].

A53T a-syn oligomers = experiment: Split-YFP PCA/FACS screen of A53T a-syn oligomers
From the text: as §1, §2
Cells were harvested by trypsin treatment and centrifuged at 500 × g for 5 min. The pellet was resuspended in ice-cold PBS and centrifuged again. The pellet was then resuspended at a concentration of 4 × 10^6 cells/ml in the sorting buffer, which is PBS containing 100 Kunitz DNase I/ml, 10 μg/ml propidium iodide (Sigma), and 2% FBS. The cells were then sent through a 40 μm filter to remove large clumps and loaded into either a FACScan Flow Cytometer (BD Bioscience) for cell analysis or a FACSVantage SE cell sorter (BD Bioscience) for cell sorting. The cells with positive propidium iodide staining (i.e., dead cells) were first eliminated from the analysis. […]

Substance	Reads 10M MG132 [1]	Reads 25M MG132 [1]	Reads 50M MG132 [1]	Slope Norm Reads [1]	Reads 0M MG132 [1]	Reads 10M MG132 [2]	Reads 25M MG132 [2]	Slope Norm Reads [2]	Reads 0M MG132 [2]	Reads GFP High (A53T a-syn oligomers)	Reads GFP Inter (A53T a-syn oligomers)	Reads GFP Neg (A53T a-syn oligomers)	Reads Ratio (A53T a-syn oligomers)	also measured
QSPSSAW [library 7-mer, A53T screen]	45	59	284	0.82	9	–	–	–	–	–	–	–	–	–
QAELSNS [library 7-mer, A53T screen]	8	10	235	0.69	6	–	–	–	–	–	–	–	–	–
LSGECVP [library 7-mer, WT screen]	–	–	–	–	–	28	28	0.07	3	–	–	–	–	–
QSVLQQV [library 7-mer, A53T screen]	2	12	282	0.82	13	–	–	–	–	–	–	–	–	–
PLPTGMG [library 7-mer, WT screen]	–	–	–	–	–	3	20	0.08	1	–	–	–	–	–
CHMP2B 1-178: shorter truncated version of CHMP2B (amino acids 1–178), implicated in FTD	–	–	–	–	–	–	–	–	–	–	–	–	–	Effect on cell survival/viability [3]: increased toxicity
WPRYPHI [library 7-mer, oligomers screen]	–	–	–	–	–	–	–	–	–	1	0	92	47.36	–
AAYNLCA [library 7-mer, WT screen]	–	–	–	–	–	14	19	0.07	1	–	–	–	–	–
LPSKIYK [library 7-mer, oligomers screen]	–	–	–	–	–	–	–	–	–	1	0	57	29.53	–
CKYRSVL [library 7-mer, A53T screen]	7	11	438	1.30	5	–	–	–	–	–	–	–	–	–
QVSVAQQ [library 7-mer, A53T screen]	13	120	246	0.69	45	–	–	–	–	–	–	–	–	–
CFLFQIQ [library 7-mer, oligomers screen]	–	–	–	–	–	–	–	–	–	1	0	88	45.32	–
CMVHSAG [library 7-mer, WT screen]	–	–	–	–	–	14	33	0.08	4	–	–	–	–	–
MQMKLSQ [library 7-mer, oligomers screen]	–	–	–	–	–	–	–	–	–	1	0	70	36.15	–
GAAAGGT [library 7-mer, WT screen]	–	–	–	–	–	10	17	0.06	1	–	–	–	–	–
LPASMPC [library 7-mer, WT screen]	–	–	–	–	–	16	27	0.09	2	–	–	–	–	–
DWLMVNL [library 7-mer, WT screen]	–	–	–	–	–	13	29	0.13	1	–	–	–	–	–
RAPSCHL [library 7-mer, WT screen]	–	–	–	–	–	13	33	0.15	1	–	–	–	–	–
ECHTKIR [library 7-mer, oligomers screen]	–	–	–	–	–	–	–	–	–	1	0	76	39.21	–
NNQYSFV [library 7-mer, oligomers screen]	–	–	–	–	–	–	–	–	–	1	0	58	30.04	–
PAMQIDG [library 7-mer, A53T screen]	20	53	337	0.96	32	–	–	–	–	–	–	–	–	–
LKRDQPV [library 7-mer, oligomers screen]	–	–	–	–	–	–	–	–	–	3	0	118	30.30	–
VYLDILG [library 7-mer, oligomers screen]	–	–	–	–	–	–	–	–	–	1	0	59	30.55	–
EDVNKCV [library 7-mer, A53T screen]	6	13	233	0.68	6	–	–	–	–	–	–	–	–	–
TQKRELT [library 7-mer, oligomers screen]	–	–	–	–	–	–	–	–	–	1	0	69	35.64	–
QSVVTAP [library 7-mer, A53T screen]	6	37	465	1.38	8	–	–	–	–	–	–	–	–	–
LQVGVAV [library 7-mer, WT screen]	–	–	–	–	–	25	23	0.09	1	–	–	–	–	–
GWTTVRR [library 7-mer, A53T screen]	1	29	322	0.94	15	–	–	–	–	–	–	–	–	–
